{
  "source": "patent US11591341B2",
  "about": "(ALIGOS THERAPEUTICS, INC., priority 2019, dated 2023)",
  "data": [
    {"tested_on": "HBV", "experiment": "HBV-DNA Antiviral Assay Using HepG2.117 Cells (intracellular HBV DNA by qPCR)", "type": "cell-based, hepatitis B virus (genotype D)", "conditions": "Hepatitis B virus, HepG2.117", "outline": "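Endpoint: qPCR copy number of intracellular HBV DNA after 3-day compound exposure, with inhibition set relative to the 2% DMSO control. The cells were doxycycline-free HepG2.117 carrying a Tet-off genotype D genome, dosed at nine 4-fold dilutions. A duplicate plate gave ATP-based viability (CC50).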", "units": {"EC50": "nM"}, "values": [
      {"smiles": "COc1ccc(-n2c(C(=O)NCc3ccccc3)c3n(c2=O)CC(C2CC2)N(C(=O)c2ccc(Br)c(Cl)c2)C3)cc1", "note": "(racemic) [Example 280, rac-(6R)-N-benzyl-7-(4-bromo-3-chloro-benzoyl)-6-cyclopropyl-2-(4-methoxyphenyl)-3-oxo-6,8-dihydro-5H-imidazo[1,5-a]pyrazine-1-carboxamide]", "EC50": "100 to 500"},
      {"smiles": "C[C@@H]1Cn2c(c(C(=O)NCc3ccccc3-n3cccn3)n(-c3ccc(OC4CC4)cc3)c2=O)CN1C(=O)c1ccc(Br)c(Cl)c1", "note": "(stereo in doubt) [Example 439, rac-(6R)-7-(4-bromo-3-chloro-benzoyl)-2-[4-(cyclopropoxy)phenyl]-6-methyl-3-oxo-N-[(2-pyrazol-1-ylphenyl)methyl]-6,8-dihydro-5H-imidazo[1,5-a]pyrazine-1-carboxamide]", "EC50": "100 to 500"},
      {"smiles": "COc1ccc(-n2c(C(=O)NCc3ccc4[nH]ncc4c3)c3n(c2=O)CCN(C(=O)c2ccc(Cl)c(Cl)c2)C3)cc1", "note": "[Example 107, 7-(3,4-dichlorobenzoyl)-N-(1H-indazol-5-ylmethyl)-2-(4-methoxyphenyl)-3-oxo-6,8-dihydro-5H-imidazo[1,5-a]pyrazine-1-carboxamide]", "EC50": "500 to 5000"},
      {"smiles": "CC(C)(Oc1ccc(-n2c(C(=O)NCc3ccccc3)c3n(c2=O)CCN(C(=O)c2ccc(Br)c(Cl)c2)C3)cc1)C(F)(F)F", "note": "[Example 393, N-benzyl-7-(4-bromo-3-chloro-benzoyl)-3-oxo-2-[4-(2,2,2-trifluoro-1,1-dimethyl-ethoxy)phenyl]-6,8-dihydro-5H-imidazo[1,5-a]pyrazine-1-carboxamide]", "EC50": "500 to 5000"},
      {"smiles": "COc1ccc([C@@H](C)NC(=O)c2c3n(c(=O)n2-c2ccc(OC4CC4)cc2)CC(C)N(C(=O)c2ccc(Br)c(Cl)c2)C3)cc1", "note": "(mixture of isomers) [Example 449, (6RS)-7-(4-bromo-3-chloro-benzoyl)-2-[4-(cyclopropoxy)phenyl]-N-[(1R)-1-(4-methoxyphenyl)ethyl]-6-methyl-3-oxo-6,8-dihydro-5H-imidazo[1,5-a]pyrazine-1-carboxamide]", "EC50": "500 to 5000"},
      {"smiles": "O=C(NCc1ccccc1)c1c2n(c(=O)n1-c1ccc(-n3ccnc3)cc1)CCN(C(=O)c1ccc(Br)c(Cl)c1)C2", "note": "[Example 312, N-benzyl-7-(4-bromo-3-chloro-benzoyl)-2-(4-imidazol-1-ylphenyl)-3-oxo-6,8-dihydro-5H-imidazo[1,5-a]pyrazine-1-carboxamide]", "EC50": "500 to 5000"},
      {"smiles": "COc1ccc(-n2c(C(=O)NCc3ccc(C#N)cc3)c3n(c2=O)CCN(C(=O)c2ccc(Br)c(Cl)c2)C3)cc1", "note": "[Example 180, 7-(4-bromo-3-chloro-benzoyl)-N-[(4-cyanophenyl)methyl]-2-(4-methoxyphenyl)-3-oxo-6,8-dihydro-5H-imidazo[1,5-a]pyrazine-1-carboxamide]", "EC50": "500 to 5000"},
      {"smiles": "Cc1cc(-n2c(C(=O)NCc3ccccc3)c3n(c2=O)CCN(C(=O)c2ccc(Br)c(Cl)c2)C3)ccc1C#N", "note": "[Example 257, N-benzyl-7-(4-bromo-3-chloro-benzoyl)-2-(4-cyano-3-methyl-phenyl)-3-oxo-6,8-dihydro-5H-imidazo[1,5-a]pyrazine-1-carboxamide]", "EC50": "500 to 5000"},
      {"smiles": "Cc1coc2ccc(-n3c(C(=O)NCc4ccccc4)c4n(c3=O)CCN(C(=O)c3ccc(Br)c(Cl)c3)C4)cc12", "note": "[Example 276]", "EC50": "100 to 500"},
      {"smiles": "O=C(NCc1ccccc1)c1c2n(c(=O)n1-c1ccc(N3CCC(F)(F)C3)cc1)CCN(C(=O)c1ccc(Br)c(Cl)c1)C2", "note": "[Example 392, N-benzyl-7-(4-bromo-3-chloro-benzoyl)-2-[4-(3,3-difluoropyrrolidin-1-yl)phenyl]-3-oxo-6,8-dihydro-5H-imidazo[1,5-a]pyrazine-1-carboxamide]", "EC50": "100 to 500"},
      {"smiles": "CC1(C)C(=O)Nc2ccc(-n3c(C(=O)NCc4ccccc4)c4n(c3=O)CCN(C(=O)c3ccc(Br)c(Cl)c3)C4)cc21", "note": "[Example 397, N-benzyl-7-(4-bromo-3-chloro-benozyl)-2-(3,3-dimethyl-2-oxo-indolin-5-yl)-3-oxo-6,8-dihydro-5H-imidazo[1,5-a]pyrazine-1-carboxamide]", "EC50": "500 to 5000"},
      {"smiles": "N#Cc1cc(C(=O)N2CCn3c(c(C(=O)NCc4ccccc4-c4cccnn4)n(-c4ccc(OC5CC5)cc4)c3=O)C2)ccc1Br", "note": "[Example 445, 7-(4-bromo-3-cyano-benzoyl)-2-[4-(cyclopropoxy)phenyl]-3-oxo-N-[(2-pyridazin-3-ylphenyl)methyl]-6,8-dihydro-5H-imidazo[1,5-a]yprazine-1-carboxamide]", "EC50": "100 to 500"},
      {"smiles": "O=C(NCc1ccccc1)c1c2n(c(=O)n1-c1ccc(N3CCO[C@H](C(F)(F)F)C3)cc1)CCN(C(=O)c1ccc(Br)c(Cl)c1)C2", "note": "(racemic) [Example 417, N-benzyl-7-(4-bromo-3-chloro-benozyl)-3-oxo-2-[4-[rac-(2S)-2-(trifluoromethyl)morpholin-4-yl]phenyl]-6,8-dihydro-5H-imidazo[1,5-a]pyrazine-1-carboxamide]", "EC50": "100 to 500"},
      {"smiles": "C[C@H](NC(=O)c1c2n(c(=O)n1-c1ccc(-n3cccn3)cc1)CCN(C(=O)c1ccc(Br)c(Cl)c1)C2)c1ccccc1F", "note": "(stereo in doubt) [Example 409, 7-(4-bromo-3-chloro-benzoyl)-3-oxo-2-(4-pyrazol-1-ylphenyl)-N-[rac-(1S)-1-(2-fluorophenyl)ethyl]-6,8-dihydro-5H-imidazo[1,5-a]pyrazine-1-carboxamide]", "EC50": "500 to 5000"},
      {"smiles": "COc1ccc(-n2c(C(=O)NCc3ccccc3)c3n(c2=O)CCN(C(=O)c2ccc(Cl)c(Cl)c2)C3)cc1", "note": "[Example 54, N-benzyl-7-(3,4-dichlorobenzoyl)-2-(4-methoxyphenyl)-3-oxo-6,8-dihydro-5H-imidazo[1,5-a]pyrazine-1-carboxamide]", "EC50": "500 to 5000"},
      {"smiles": "C[C@H](Oc1ccc([C@H](C)NC(=O)c2c3n(c(=O)n2-c2ccc(OC4CC4)cc2)CCN(C(=O)c2ccc(Br)c(Cl)c2)C3)c(F)c1)C(N)=O", "note": "(stereo in doubt) [Example 358, 7-(4-bromo-3-chloro-benzoyl)-2-[4-(cyclopropoxy)phenyl]-3-oxo-N-[rac-(1S)-1-[2-fluoro-4-[rac-(1S)-2-amino-1-methyl-2-oxo-ethoxy]phenyl]ethyl]-6,8-dihydro-5H-imidazo[1,5-a]pyrazine-1-carboxamide]", "EC50": "< 100"},
      {"smiles": "COc1ccc(-n2c(C(=O)NC(C)C3CC3)c3n(c2=O)CCN(C(=O)c2ccc(Cl)c(Cl)c2)C3)cc1", "note": "(racemic) [Example 94, 7-(3,4-dichlorobenzoyl)-2-(4-methoxyphenyl)-3-oxo-N-[rac-(1S)-1-cyclopropylethyl]-6,8-dihydro-5H-imidazo[1,5-a]pyrazine-1-carboxamide]", "EC50": "> 5000"},
      {"smiles": "COc1ccc(CNC(=O)c2c3n(c(=O)n2-c2ccc(C#N)cc2)CCN(C(=O)c2ccc(Br)c(Cl)c2)C3)c(F)c1", "note": "[Example 164, 7-(4-bromo-3-chloro-benzoyl)-2-(4-cyanophenyl)-N-[(2-fluoro-4-methoxy-phenyl)methyl]-3-oxo-6,8-dihydro-5H-imidazo[1,5-a]pyrazine-1-carboxamide]", "EC50": "500 to 5000"},
      {"smiles": "C[C@H](Oc1ccc([C@@H](C)NC(=O)c2c3n(c(=O)n2-c2ccc(OCC(F)(F)F)cc2)CCN(C(=O)c2ccc(Br)c(Cl)c2)C3)c(F)c1)C(N)=O", "note": "(stereo in doubt) [Example 360, 7-(4-bromo-3-chloro-benzoyl)-3-oxo-N-[rac-(1R)-1-[2-fluoro-4-[rac-(1S)-2-amino-1-methyl-2-oxo-ethoxy]phenyl]ethyl]-2-[4-(2,2,2-trifluoroethoxy)phenyl]-6,8-dihydro-5H-imidazo[1,5-a]pyrazine-1-carboxamide]", "EC50": "500 to 5000"},
      {"smiles": "COc1ccc(CN2CCCCn3c(c4n(c3=O)CCN(C(=O)c3ccc(Br)c(Cl)c3)C4)C2=O)cc1", "note": "[Example 135, 4-(4-bromo-3-chloro-benzoyl)-14-[(4-methoxyphenyl)methyl]-4,7,9,14-tetrazatricyclo[7.6.0.0^2,7]pentadec-1-ene-8.15-dione]", "EC50": "500 to 5000"},
      {"smiles": "O=C(NCc1ccccc1-n1ccnc1)c1c2n(c(=O)n1-c1ccc(OCC(F)(F)F)cc1)CCN(C(=O)c1ccc(Br)c(Cl)c1)C2", "note": "[Example 263, 7-(4-bromo-3-chloro-benzoyl)-N-[(2-imidazol-1-ylphenyl)methyl]-3-oxo-2-[4-(2,2,2-trifluoroethoxy)phenyl]-6,8-dihydro-5H-imidazo[1,5-a]pyrazine-1-carboxamide]", "EC50": "500 to 5000"},
      {"smiles": "CCOc1ccc(-n2c(C(=O)NCc3ccccc3)c3n(c2=O)CCN(C(=O)c2ccc(Cl)c(Cl)c2)C3)cc1", "note": "[Example 51, N-benzyl-7-(3,4-dichlorobenzoyl)-2-(4-ethoxyphenyl)-3-oxo-6,8-dihydro-5H-imidazo[1,5-a]pyrazine-1-carboxamide]", "EC50": "500 to 5000"},
      {"smiles": "COc1ccc(CNC(=O)c2c3n(c(=O)n2-c2ccc(-n4cccn4)cc2)CCN(C(=O)c2ccc(Br)c(Cl)c2)C3)c(F)c1", "note": "[Example 459, 7-(4-bromo-3-chloro-benzoyl)-N-[(2-fluoro-4-methoxy-phenyl)methyl]-3-oxo-2-(4-pyrazol-1-ylphenyl)-6,8-dihydro-5H-imidazo[1,5-a]pyrazine-1-carboxamide]", "EC50": "100 to 500"},
      {"smiles": "CS(=O)(=O)c1ccc(-n2c(C(=O)NCc3ccccc3)c3n(c2=O)CCN(C(=O)c2ccc(Br)c(Cl)c2)C3)cc1", "note": "[Example 45, N-benzyl-7-(4-bromo-3-chloro-benzoyl)-2-(4-methylsulfonylphenyl)-3-oxo-6,8-dihydro-5H-imidazo[1,5-a]pyrazine-1-carboxamide]", "EC50": "500 to 5000"},
      {"smiles": "C[C@H](c1ccccc1)N1C[C@H](O)Cn2c(c3n(c2=O)CCN(C(=O)c2ccc(Br)c(Cl)c2)C3)C1=O", "note": "(stereo in doubt) [Example 203, (11SR)-4-(4-bromo-3-chloro-benzoyl)-11-hydroxy-13-[(1R)-1-phenylethyl]-4,7,9,13-tetrazatricyclo[7.5.0.0^2,7]tetradec-1-ene-8,14-dione]", "EC50": "100 to 500"},
      {"smiles": "COc1ccc(-n2c(C(=O)N[C@@H](c3ccccc3)C(C)C)c3n(c2=O)CCN(C(=O)c2ccc(Br)c(Cl)c2)C3)cc1", "note": "(racemic) [Example 178, 7-(4-bromo-3-chloro-benzoyl)-2-(4-methoxyphenyl)-3-oxo-N-[rac-(1R)-2-methyl-1-phenyl-propyl]-6,8-dihydro-5H-imidazo[1,5-a]pyrazine-1-carboxamide]", "EC50": "500 to 5000"}
    ]}
  ]
}
